Experimental data from patent US9421237B2, “Tripeptide boronic acid or boronic ester, preparative method and use thereof” (PEKING UNIVERSITY, priority 2009, dated 2016).

What was measured:
[1] = target: T1, 20S proteasome extracted from rat liver, trypsin-like (TL) activity (Rattus norvegicus, UniProt P40112+Q9JHW0); experiment: Proteasome inhibition, trypsin-like (TL) activity, fluorescent peptide Z-Ala-Arg-Arg-AMC; format: biochemical; conditions: rat liver 20S proteasome, 37° C., 1 h; read-out: T-L (IC50)
T1 construct: 20S proteasome extracted from rat liver; from tissue; host or cells: rat liver
Method in brief: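 Rat liver 20S proteasome (1 μg) incubated 1 h at 37 °C with compounds, 50 μM fluorogenic peptide and 20 mM Tris-HCl. AMC release read at 380/440 nm and βNA release at 335/410 nm. Inhibition rate calculated against a 0.1% DMSO solvent control.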

[2] = test system: HL-60 human leukemia cell; experiment: Preliminary anti-tumor screening in vitro, MTT method; format: cell-based; set-up: key to Test results: +++: inhibition rates at three doses are greater than 50%; ++: inhibition rates at two doses are greater than 50%; +: inhibition rate at one dose is greater than 50%; conditions: HL-60, MTT; for Test results: number of doses with inhibition > 50%; for inhibition at 0.05 µM / inhibition at 0.5 µM / inhibition at 5 µM: Homo sapiens, read-out: Inhibition rate %
Method in brief: (§1)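 In vitro cytotoxicity by routine methods: MTT read-out for HL-60 cells, SRB read-out for BGC-823, Bel-7402 and KB cells.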

murine H22 cells = experiment: In vivo anti-tumor activity, H22 tumor in ICR mice, oral administration; conditions: for Animal numbers Start/End / Body weight (g) (X ± SD): ICR mice with H22; for Inhibition rate (%) / Tumor weight (g) (X ± SD): tumors weighed at 12th day
Procedure: Animal: ICR mice, half male and half female (18-22 g), provided by Laboratory Animal Science Department of Peking Medical University.
Tumor cell strain: murine H22 cells were provided by cell bank of pharmacological group of the State Key Laboratory of Natural and Biomimetic Drugs.
Method: Murine tumor cells were taken to be treated, and diluted to 5×10^6 cells/ml after treatment. The diluted tumor cells solution was inoculated to the left forelimb oxter of the mice with 0.2 ml/mouse under aseptic condition. 24 h after inoculation, the mice were divided into groups and orally administered once per day to the mice in each group for 10 days. At the 12th day, the tumors were peeled off and weighed, and the average weight of the tumor, standard deviation (SD) and p-value of each group were calculated.

[3] = test system: BGC-823 human gastric cancer cell; experiment: Preliminary anti-tumor screening in vitro, SRB method; format: cell-based; set-up: key to Test results: +++: inhibition rates at three doses are greater than 50%; ++: inhibition rates at two doses are greater than 50%; +: inhibition rate at one dose is greater than 50%; conditions: BGC-823, SRB; for Test results: number of doses with inhibition > 50%; for inhibition at 0.05 µM / inhibition at 0.5 µM / inhibition at 5 µM: Homo sapiens, read-out: Inhibition rate %
Method in brief: as §1

[4] = test system: BGC-823 (human gastric carcinoma cell strain); experiment: In vitro anti-tumor activity (IC50), standard MTT method; format: cell-based; conditions: 72 h, average of three determinations
Procedure: (§2) HL-60, BXPC-3 and U266 were obtained from the American Type Culture Collection (Manassas, Va.), and BGC-823 (human gastric carcinoma cell strain) was obtained from China Pharmaceutical University.
(§3) Test methods: HL-60 cells were cultured in IMDM medium containing 20% fetal bovine serum at 37° C. in 5% CO2; BGC-823 cells and BXPC-3 cells were cultured in RPMI1640 medium containing 10% fetal bovine serum at 37° C. in 5% CO2; U266 cells were cultured in RPMI1640 medium containing 15% fetal bovine serum at 37° C. in 5% CO2.
(§4) The cell growth was measured by the standard MTT method. A dispersions (150 μL, containing 3000 cells) medium was added into each well of a 96-well plate and allowed to grow, after 24 h, ten kinds of medium (50 μL) containing different concentrations of drugs were added into the corresponding wells, and continued to incubate for 72 h. Then a solution containing 5 mg/ml MTT (20 μL) was added into each well and incubated for another 4 h at 37° C. The plate was then centrifugated at 1000 rpm at 4° C. for 5 min, and the medium in upper layer was carefully discarded. The precipitates were dissolved in 100 μL of DMSO, and absorbance was read with an Infinite M200 (Tecan, Austria) microplate reader at 540 nm.
(§5) The result was expressed as IC50 value, which is the average value of three independent determinations.

[5] = test system: HL-60 (promyelocytic leukemia cell strain); experiment: as above; format: cell-based; conditions: Homo sapiens, 72 h, average of three determinations
Procedure: as §2, §3, §4, §5

[6] = test system: BXPC-3 (human pancreatic cancer cell strain); experiment: as above; format: cell-based; conditions: 72 h, average of three determinations
Procedure: as §2, §3, §4, §5

[7] = test system: U266 (multiple myeloma cell strain); experiment: as above; format: cell-based; conditions: Homo sapiens, U-266, 72 h, average of three determinations
Procedure: as §2, §3, §4, §5

[8] = target: T2, 20S proteasome extracted from rat liver, chymotryptic-like (CT-L) activity (Rattus norvegicus, UniProt P18421+P28075); experiment: Proteasome inhibition, chymotryptic-like (CT-L) activity, fluorescent peptide Suc-leu-leu-Val-Tyr-AMC; format: biochemical; conditions: rat liver 20S proteasome, 37° C., 1 h
T2 construct: 20S proteasome extracted from rat liver; from tissue; host or cells: rat liver
Method in brief: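 Rat liver 20S proteasome (1 μg) incubated 1 h at 37° C with compounds and 50 μM Suc-Leu-Leu-Val-Tyr-AMC in 20 mM Tris-HCl.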

[9] = 1 mg/kg orally once per day for 10 days
[10] = 2 mg/kg orally once per day for 10 days

| SMILES | IC50 [1] | Test results [2] | inhibition at 0.05 µM [2] | inhibition at 0.5 µM [2] | inhibition at 5 µM [2] | Animal numbers Start/End (murine H22 cells; [9]) | Body weight (g) (X ± SD) (murine H22 cells; [9]) | Inhibition rate (%) (murine H22 cells; [9]) | Tumor weight (g) (X ± SD) (murine H22 cells; [9]) | Animal numbers Start/End (murine H22 cells; [10]) | Body weight (g) (X ± SD) (murine H22 cells; [10]) | Inhibition rate (%) (murine H22 cells; [10]) | Tumor weight (g) (X ± SD) (murine H22 cells; [10]) | Test results [3] | inhibition at 0.05 µM [3] | inhibition at 0.5 µM [3] | inhibition at 5 µM [3] | IC50 [4] | IC50 [5] | IC50 [6] | further results |
| --- | --- | --- | --- | --- | --- | --- | --- | --- | --- | --- | --- | --- | --- | --- | --- | --- | --- | --- | --- | --- | --- |
| CC(C)C[C@H](NC(=O)[C@H](Cc1ccc2ccccc2c1)NC(=O)[C@H](CC(C)C)NC(=O)c1cnccn1)B(O)O [Compound 6f, N-pyrazineformyl-L-leucyl-L-naphthylalanyl-L-leucine Boronic Acid] | > 20 nM | ++ | 1.26% | 87.4% | 88.6% | 8/6 | 1.49 ± 1.07 g | 51.67% | 0.60 ± 0.16 g | 8/5 | 0.04 ± 4.29 g | 55.34% | 0.56 ± 0.17 g | +++ | 80.3% | 95.5% | 96.8% | 600 nM | 4.6 nM | 21.2 nM | IC50 [7]: 9.9 nM; IC50 [8]: 0.079 ± 0.011 nM |
| CC(C)C[C@H](NC(=O)[C@H](Cc1ccc2ccccc2c1)NC(=O)[C@H](Cc1ccccc1)NC(=O)c1cnccn1)B(O)O [Compound 6g, N-pyrazineformyl-L-phenylalanyl-L-naphthylalanyl-L-leucine Boronic Acid] | > 20 nM | ++ | 5.68% | 87.8% | 88.6% | 8/8 | -1.28 ± 2.83 g | 34.24% | 0.82 ± 0.36 g | 8/8 | -0.53 ± 2.58 g | 56.33% | 0.54 ± 0.28 g | +++ | 76.9% | 95.5% | 97.1% | 1040 nM | 7.4 nM | 28.7 nM | Toxicity in the in vivo anti-tumor test, compared with bortezomib (PS341) (murine H22 cells; ICR mice with H22, oral): even lower; IC50 [7]: 15.8 nM; IC50 [8]: 0.111 ± 0.05 nM |
